Data set [1] has as its system Human airway epithelial cell line BEAS-2B. Description: Cytotoxicity test (WST-8 assay) after direct contact of test liquids with cells for about 2 hours; normalized cell survival rate. As to conditions: direct contact with test liquid about 2 hours, WST-8 24 hours after contact, control liquid (0.5% FBS-containing RPMI-1640) = 1. A general note: Tetrazolium dyes change colour on reduction, which living cells bring about.

Data set [2] has as its system leaves of Arabidopsis thaliana.
Method: (§1) Further, the leaves used for the test after observation were soaked in water over 16 hours followed by observation. Water was used as a control. Although water is cytotoxic to naked cells, it is not cytotoxic to cells having cell walls, and thus could be used as a control.
Data set [3] has as its system leaves of Arabidopsis thaliana. The data set can be described thus: Soaking of plant leaves in organic solvents, observation of appearance. As to conditions: for change in the appearance of leaves: leaf of A. thaliana soaked in the solvent, observed after 2 hours.
Method: as §1
In data set [4] the test system is human airway epithelial cells Calu-3. Description: WST-8 absorbance of cells on porous support after contact with solutions of PFOA in hydrofluoroether. As to conditions: PFOA in hydrofluoroether (C4F9OC2H5); for absorbance (WST-8): 15 hours. It counts as cell-based. The method, then:
In the present Example, hydrofluoroether (C4F9OC2H5) was used as the non-hydrophilic liquid and perfluorooctanoic acid (PFOA) was used as the non-hydrophilic substance. Solutions of PFOA in hydrofluoroether having various PFOA concentrations ([…], 1 and 10 g/L) were prepared. The solutions correspond to the second liquid of the present disclosure.
In the similar manner as Example 4 except that the solutions of PFOA in hydrofluoroether were used, the procedure was carried out up to the pre-cultivation step. Thereafter the cultivation step was carried out by using the solutions as the second liquid and leaving the device in the CO2 incubator for 15 hours.
Thereafter […], was removed from the cavity of the insert 24, 200 μl of an aqueous solution of a medium containing WST-8 (2-(2-methoxy-4-nitrophenyl)-3(4-nitrophenyl)-5-(2,4-disulfophenyl)-2H-tetrazolium), which is a kind of a tetrazolium salt, was added and the device was let to stand in the CO2 incubator for 20 minutes for cultivation.
Thereafter 100 μl of the medium was transferred from the insert 24 of the cell structure into a microplate and the absorbance at the wavelengths 450 nm and 600 nm was measured.

Data set [5] shares this test system. Description: Transepithelial electric resistance (TER) of cells on porous support after contact with non-hydrophilic liquids. The format is cell-based. As to conditions: Calu-3, 3 hours contact with 200 ul liquid, TER after 24 hours in fresh medium, FIG. 18. How it is done:
In the present Example, an action of non-hydrophilic liquids having the fluorocarbon structure was evaluated using human airway epithelial cells Calu-3. As a device for evaluation, the evaluation device 20 illustrated in FIG. 16 was used. […] At the bottom of each insert, a porous support 28 is provided that can retain and cultivate cells.
Cells were inoculated on each support 28 in the insert 24 and the space in the well 22 other than the insert 24 and the cavity in the insert 24 were filled with the cell growth medium. The evaluation device 20 was then left to stand in a CO2 incubator for a few days to allow dense growth of cells on the whole upper surface of the support 28, thereby carrying out the pre-cultivation step. In the pre-cultivation step, the transepithelial electric resistance (TER) was measured over time to confirm that a barrier (coverage and functional tight junctions) was constructed on the surface of the cells that is in contact with the insert 24.
Next, a cell structure illustrated in FIG. 17 was prepared. […]
After 24 hours, the cells on the support 28 in the cell structure removed from the CO2 incubator were again measured for the transepithelial electric resistance (TER) after removal of the growth medium in order to confirm the extent of formation of the cell barrier. […]

Where two headings read alike, the source gives them in different places.

With `O` [P1, Water, reference compound], the “Normalized cell survival rate” value in data set [1] is listed as 0.01. In the case of `CCO` [P2, Ethanol, reference compound], the “Normalized cell survival rate” value in data set [1] is given as 0.01. Further, in data set [2], the “change in the appearance of leaves” value was “eroded epidermal cells of the leaves of A. thaliana and caused effusion of chlorophyll”. As for `CC(C)=O` [P3, Acetone, reference compound], the “Normalized cell survival rate” value in data set [1] worked out at 0.01. Besides, in data set [3], the “change in the appearance of leaves” value is “eroded epidermal cells of the leaves of A. thaliana and caused effusion of chlorophyll”. For the same compound, the “change in the appearance of leaves after subsequent soaking in water” value in data set [3] (leaves after the 2 hours test soaked in water over 16 hours, compared to control water) is “caused atrophy (deformation) of leaves of A. thaliana”.

As for `CCOCC` [P4, Diethyl ether, reference compound], the “Normalized cell survival rate” value in data set [1] came out at 0.01. Take `O=C(O)C(F)(F)C(F)(F)C(F)(F)C(F)(F)C(F)(F)C(F)(F)C(F)(F)F` [PFOA, perfluorooctanoic acid]: the “PFOA concentration with an action of causing cell death” value in data set [4] (Calu-3, 15 hours) was ≥ 1 g/L. The “absorbance (WST-8)” value was “hardly detected” in data set [4] (at or above 1 g/L of PFOA) and “almost at the same level” in data set [4] (until PFOA concentration 0.1 g/L).

Turning to `FC(F)(F)c1cccc(C(F)(F)F)c1` [S1, 1,3-Bis(Trifluoromethyl) Benzene], in data set [1], the “Normalized cell survival rate” value amounted to 0.01.

For the compound `FC(F)(F)C(F)(F)C(F)(F)C(F)(F)C(F)(F)C(F)(F)F` [S2, Perfluorohexane, PFC 5060], the “effect on cell death or intercellular tight junctions (TER)” value in data set [5] was “significantly promoted cell death and the like”. Turning to `OCC(F)(F)C(F)(F)C(F)(F)C(F)(F)C(F)(F)C(F)F` [S4, 1H,1H,7H-Dodecafluoro-1-heptanol], in data set [1], the “Normalized cell survival rate” value worked out at 0.01. Take `COC(F)(F)C(F)(F)C(F)(F)C(F)(F)F` [S5, HFE-7100]: the “Normalized cell survival rate” value in data set [1] worked out at 1.04. Consider `COC(F)(C(F)(F)C(F)(F)F)C(F)(C(F)(F)F)C(F)(F)F` (stereo not shown) [S7, HFE-7300], for which the “Normalized cell survival rate” value in data set [1] was found to be 0.92. Also, the “change in the appearance of leaves” value in data set [3] is given as “did not change an appearance of leaves of A. thaliana”. Regarding `C[Si](C)(C)O[Si](C)(C)C` [S16, OS-10 (Hexamethyldisiloxane)], the “Normalized cell survival rate” value in data set [1] came out at 0. The same measure, in the same setting: the value for `C[Si](C)(C)O[Si](C)(C)O[Si](C)(C)C` [S17, OS-20 (Octamethyltrisiloxane)] was 0.05. As for `C[Si](C)(C)O[Si](C)(C)O[Si](C)(C)O[Si](C)(C)C` [S18, OS-30 (Decamethyltetrasiloxane)], in data set [1], the “Normalized cell survival rate” value was 0.92. Same read-out and setting: the value for `C[Si]1(C)O[Si](C)(C)O[Si](C)(C)O[Si](C)(C)O[Si](C)(C)O1` [S19, Decamethylcyclopentasiloxane] was 0.92; that for `FC(F)(F)C(F)(F)C(F)(F)C(F)(F)C(F)(F)C(F)(F)C(F)(F)C(F)(F)Br` [S20, 1-Bromoperfluorooctane] was 1.2. In the case of `COC(F)(F)C(F)(F)C(F)(F)F` [S21, HFE-7000], the “Normalized cell survival rate” value in data set [1] is on record as 1.01. For the compound HFE-7200 [S6], the “effect on cell death or intercellular tight junctions (TER)” value in data set [5] was “had less effect on cell death or intercellular tight junctions than perfluorohexane, which effect was almost the same as the controls”. The “Normalized cell survival rate” value in data set [1] is recorded as 0.88. Moreover, the “change in the appearance of leaves” value in data set [3] was “did not change an appearance of leaves of A. thaliana”.

For the origin of these results see patent US20160313303A1, “BICOMPATIBLE LIQUID AND METHOD FOR SCREENING SAME” (KABUSHIKI KAISHA TOYOTA CHUO KENKYUSHO, priority 2015, published 2016).
